Activity calls are given as the source filed them. The rule behind the calls is not given here.
Experiments:
[1] = Apparent octanol-phosphate buffer partition coefficient, log D of the compound at 1 mg at pH 7.4 after 24 hrs by HPLC analysis; type: physicochemical
[2] = Cmax in ICR mouse at 10 mg/kg; type: ADME, organism-based; design: dose 10 mg/kg; conditions: in vivo
[3] = tested on: Influenza A virus (A/WSN/1933(H1N1)); assay: Antiviral activity against Influenza A virus (A/WSN/1933(H1N1)) infected in BALB/c mouse assessed as increase in survival rate at 0.12 umol/kg/day administered on day 0 intranasally bid prior to viral infection continued for day 1 to day 4 measured on day 9; type: functional
[4] = AUC (0 to infinity) in ICR mouse at 10 mg/kg, po; type: ADME, organism-based; design: time infinity, dose 10 mg/kg, route oral; conditions: plasma
[5] = Terminal half life in ICR mouse at 10 mg/kg, po; type: ADME, organism-based; design: dose 10 mg/kg, route oral; conditions: in vivo, read-out: beta t1/2 (converted)
[6] = AUC (0 to 12 hrs) in ICR mouse at 10 mg/kg, po; type: ADME, organism-based; design: time < 12 hr, dose 10 mg/kg, route oral; conditions: plasma
[7] = First order rate constant associated with the terminal portion of the curve in ICR mouse at 10 mg/kg, po; type: ADME, organism-based; design: dose 10 mg/kg, route oral; conditions: in vivo
[8] = tested on: HEK-293T; assay: Cytotoxicity against human 293T cells at >10 uM after 48 to 72 hrs; type: cell-based
[9] = tested on: Mus musculus; assay: Bioavailability in ICR mouse at 0.25 mg/kg, iv; type: ADME, organism-based; conditions: in vivo
[10] = AUC (0 to 2 hrs) in ICR mouse at 0.25 mg/kg, iv; type: ADME, organism-based; design: time < 2 hr, dose 0.25 mg/kg, route intravenous; conditions: plasma
[11] = tested on: Influenza A virus (A/WSN/1933(H1N1)); assay: Antiviral activity against Influenza A virus (A/WSN/1933(H1N1)) infected in BALB/c mouse assessed as increase in survival rate at 2.6 umol/kg/day, po bid administered on day 0 prior to viral infection continued for day 1 to day 4 measured on day 14; type: functional, organism-based
[12] = Tmax in ICR mouse at 10 mg/kg; type: ADME, organism-based; design: dose 10 mg/kg; conditions: in vivo
[13] = Terminal half life in ICR mouse at 0.25 mg/kg, iv; type: ADME, organism-based; design: dose 0.25 mg/kg, route intravenous; conditions: in vivo, read-out: beta t1/2 (converted)
[14] = Oral bioavailability in ICR mouse at 10 mg/kg; type: ADME, organism-based; conditions: in vivo
[15] = tested on: Caco-2; assay: Permeability across apical to basolateral side in human Caco2 cells at 100 ug/mL after 15 to 120 mins by HPLC analysis; type: ADME, cell-based
[16] = Apparent total clearance in ICR mouse at 10 mg/kg; type: ADME, organism-based; design: dose 10 mg/kg; conditions: in vivo, read-out: CLt/F (converted)
[17] = tested on: MDCK; assay: Cytotoxicity against MDCK cells at >10 uM after 48 to 72 hrs; type: cell-based, Canis lupus familiaris; conditions: dog
[18] = tested on: Influenza A virus (A/WSN/1933(H1N1)); assay: Antiviral activity against Influenza A virus (A/WSN/1933(H1N1)) infected in BALB/c mouse assessed as increase in survival rate at 1.2 umol/kg/day administered on day 0 intranasally bid prior to viral infection continued for day 1 to day 4 measured on day 14; type: functional
[19] = Cellular uptake in MDCK2 cells measured per mg of protein at 100 ug/mL after 120 mins by HPLC analysis; type: ADME, cell-based, Canis lupus familiaris; conditions: dog, mdck-ii, 2 h
[20] = First order rate constant associated with the terminal portion of the curve in ICR mouse at 0.25 mg/kg, iv; type: ADME, organism-based; design: dose 0.25 mg/kg, route intravenous; conditions: in vivo
[21] = AUC (0 to infinity) in ICR mouse at 0.25 mg/kg, iv; type: ADME, organism-based; design: time infinity, dose 0.25 mg/kg, route intravenous; conditions: plasma
[22] = target: Neuraminidase (Influenza A virus, UniProt B4URF0); design: species or system Influenza A virus (A/WSN/1933(H1N1))
Neuraminidase, sequence (B4URF0 whole entry): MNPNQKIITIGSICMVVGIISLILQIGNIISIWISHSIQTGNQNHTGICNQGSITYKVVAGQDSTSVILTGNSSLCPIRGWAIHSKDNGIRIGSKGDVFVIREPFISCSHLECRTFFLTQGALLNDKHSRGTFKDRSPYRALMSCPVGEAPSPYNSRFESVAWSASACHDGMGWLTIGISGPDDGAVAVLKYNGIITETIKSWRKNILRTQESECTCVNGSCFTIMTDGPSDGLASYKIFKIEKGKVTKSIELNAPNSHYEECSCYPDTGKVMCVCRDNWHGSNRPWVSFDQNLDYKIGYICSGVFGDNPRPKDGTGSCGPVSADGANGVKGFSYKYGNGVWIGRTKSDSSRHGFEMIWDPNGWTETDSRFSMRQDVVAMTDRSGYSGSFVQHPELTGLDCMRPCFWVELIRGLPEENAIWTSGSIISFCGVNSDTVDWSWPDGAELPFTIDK

SMILES: CCCCCCOP(=O)(O)C1=C[C@@H](OC(CC)CC)[C@H](NC(C)=O)[C@@H](NC(=N)N)C1
- logD at 24 h [1]: 0.63
- Cmax [2]: 261 ng/mL
- Activity [3]: Active
- AUC(0-inf) [4]: 867 ng·h/mL
- half-life [5]: 1.07 h
- AUC(0-t) at 12 h [6]: 361 ng·h/mL
- k el [7]: 0.000167 s⁻¹
- Activity [8]: Non-toxic
- F [9]: 100%
- AUC(0-t) at 2 h [10]: 169 ng·h/mL
- Activity [11]: Active
- Tmax [12]: 1 h
- half-life [13]: 0.36 h
- bioavailability [14]: 12.6%
- permeability [15]: permeable
- CL/F [16]: 184 mL/min/kg
- Activity [17]: Non-toxic
- Activity [18]: Active
- Drug uptake [19]: 13500 ng
- k el [20]: 0.000533 s⁻¹
- AUC(0-inf) [21]: 173 ng·h/mL
- IC50 [22]: 4.1 nM

SMILES: CCC(CC)O[C@@H]1C=C(P(=O)(O)OCCCc2c[nH]c3ccccc23)C[C@H](N)[C@H]1NC(C)=O
- Activity [8]: Non-toxic
- Activity [17]: Non-toxic
- IC50 [22]: 1.7 nM

SMILES: CC(=O)N[C@H]1[C@H]([C@H](O)[C@H](O)CO)OC(C(=O)O)=C[C@@H]1NC(=N)N
- Activity [3]: inactive

SMILES: CCOP(=O)(O)C1=C[C@@H](OC(CC)CC)[C@H](NC(C)=O)[C@@H](NC(=N)N)C1 [TAMIPHOSPHOR MONOETHYL ESTER]
- Activity [3]: Active
- Activity [11]: Active
- Activity [18]: Active

SMILES: CCCCOP(=O)(O)C1=C[C@@H](OC(CC)CC)[C@H](NC(C)=O)[C@@H](N)C1
- logD at 24 h [1]: -0.29
- Activity [8]: Non-toxic
- Activity [17]: Non-toxic
- IC50 [22]: 6.9 nM

SMILES: CCC(CC)O[C@@H]1C=C(P(=O)(O)OCCCc2ccccc2)C[C@H](NC(=N)N)[C@H]1NC(C)=O
- logD at 24 h [1]: 0.66
- Activity [3]: Active
- Activity [8]: Non-toxic
- Activity [11]: Active
- Activity [17]: Non-toxic
- Activity [18]: Active
- Drug uptake [19]: < 2000 ng
- IC50 [22]: 3.2 nM

SMILES: CCC(CC)O[C@@H]1C=C(P(=O)(O)OCCCc2ccccc2)C[C@H](N)[C@H]1NC(C)=O
- logD at 24 h [1]: 0.28
- Activity [8]: Non-toxic
- Activity [17]: Non-toxic
- IC50 [22]: 1.8 nM

SMILES: CCCCOP(=O)(O)C1=C[C@@H](OC(CC)CC)[C@H](NC(C)=O)[C@@H](NC(=N)N)C1
- logD at 24 h [1]: -0.16
- Activity [8]: Non-toxic
- Activity [17]: Non-toxic
- IC50 [22]: 6.7 nM

SMILES: CCCCCCOP(=O)(O)C1=C[C@@H](OC(CC)CC)[C@H](NC(C)=O)[C@@H](N)C1
- logD at 24 h [1]: 0.3
- Activity [8]: Non-toxic
- Activity [17]: Non-toxic
- IC50 [22]: 2.2 nM

SMILES: CCOP(=O)(O)C1=C[C@@H](OC(CC)CC)[C@H](NC(C)=O)[C@@H](N)C1 [TAMIPHOSPHOR MONOETHYL ESTER]
- Activity [8]: Non-toxic
- Activity [17]: Non-toxic

SMILES: CCOC(=O)C1=C[C@@H](OC(CC)CC)[C@H](NC(C)=O)[C@@H](N)C1
- Activity [11]: Active

From ChEMBL document CHEMBL3259643 (Eur J Med Chem, 2014)
